Assay: xn = mol fraction of the nth substance listed
Details: 101.3 kPa

O=C([O-])c1ccccc1.[Na+] + CCOS(=O)(=O)[O-].CC[n+]1ccn(C)c1 + O
viscosity [mPa·s]
Details	293.15 K	298.15 K	303.15 K	308.15 K	313.15 K
x1 = 0.0001784, x2 = 0	1.009	0.897	0.803	0.727	0.651
x1 = 0.0001804, x2 = 0.001795	1.079	0.966	0.851	0.757	0.685
x1 = 0.0001842, x2 = 0.002697	1.114	0.994	0.883	0.795	0.716
x1 = 0.0001899, x2 = 0.003589	1.144	1.024	0.907	0.819	0.735
x1 = 0.0005403, x2 = 0	1.014	0.903	0.809	0.733	0.657
x1 = 0.0005539, x2 = 0.001794	1.086	0.973	0.858	0.764	0.692
x1 = 0.0005579, x2 = 0.002696	1.121	1.001	0.89	0.802	0.723
x1 = 0.0005619, x2 = 0.003587	1.151	1.032	0.915	0.827	0.743
x1 = 0.0009002, x2 = 0	1.019	0.908	0.814	0.738	0.662
x1 = 0.0009234, x2 = 0.001794	1.092	0.979	0.864	0.77	0.698
x1 = 0.0009314, x2 = 0.002695	1.128	1.008	0.897	0.809	0.73
x1 = 0.0009412, x2 = 0.003586	1.158	1.039	0.922	0.834	0.75
x1 = 0.001258, x2 = 0	1.024	0.913	0.819	0.743	0.667
x1 = 0.001287, x2 = 0.001793	1.098	0.984	0.869	0.776	0.703
x1 = 0.001299, x2 = 0.002694	1.134	1.014	0.903	0.815	0.737
x1 = 0.001311, x2 = 0.003585	1.165	1.047	0.929	0.841	0.757
x1 = 0.001619, x2 = 0	1.029	0.918	0.824	0.748	0.672
x1 = 0.001651, x2 = 0.001792	1.103	0.99	0.875	0.781	0.709
x1 = 0.001674, x2 = 0.002693	1.14	1.02	0.91	0.821	0.742
x1 = 0.001689, x2 = 0.003583	1.172	1.053	0.936	0.848	0.764
x1 = 0.001978, x2 = 0	1.034	0.923	0.829	0.753	0.677
x1 = 0.002025, x2 = 0.001792	1.108	0.997	0.881	0.786	0.715
x1 = 0.002045, x2 = 0.002692	1.146	1.027	0.915	0.827	0.748
x1 = 0.002068, x2 = 0.003582	1.178	1.059	0.943	0.854	0.77

— the CheMixHub ionic liquid set
